{
  "source": "ChEMBL document CHEMBL1125092",
  "about": "“Nonneurotoxic tetralin and indan analogues of 3,4-(methylenedioxy)amphetamine (MDA)” (J Med Chem, 1990)",
  "assay_type_in_all_cases": "functional",
  "key": {"[1]": {"system": "Rattus norvegicus", "assay": "Hallucinogenic property was determined in groups of LSD trained rats and percentage of animals disrupted was reported at a dose 3.88 (umol/kg),(number of animals = 10)"}, "[2]": {"system": "Rattus norvegicus", "assay": "Percentage of animals disrupted was determined in groups of LSD trained rats at a dose of 10.67 (umol/kg),(no of animals = 5)"}, "[3]": {"system": "Rattus norvegicus", "assay": "Hallucinogenic property was determined in groups of LSD trained rats and percentage of animals disrupted was reported at a dose 9.70 (umol/kg),(number of animals = 13)"}, "[4]": {"system": "Rattus norvegicus", "assay": "Hallucinogenic property was determined in groups of MDMA trained rats and percentage of animals disrupted was reported at a dose 11.64 (umol/kg),(number of animals = 6)"}, "[5]": {"system": "Rattus norvegicus", "assay": "Hallucinogenic property was determined in groups of MDMA trained rats and percentage of animals disrupted was reported at a dose 3.88 (umol/kg),(number of animals = 11)"}, "[6]": {"system": "Rattus norvegicus", "assay": "Hallucinogenic property was determined in groups of MDMA trained rats and percentage of animals disrupted was reported at a dose 7.76 (umol/kg),(number of animals = 11)"}, "[7]": {"system": "Rattus norvegicus", "assay": "Hallucinogenic property was determined in groups of LSD trained rats and percentage of animals disrupted was reported at a dose 7.77 (umol/kg),(number of animals = 15)"}, "[8]": {"system": "Rattus norvegicus", "assay": "Hallucinogenic property was determined in groups of LSD trained rats and percentage of animals disrupted was reported at 5.82 (umol/kg),(number of animals = 11)"}, "[9]": {"system": "Rattus norvegicus", "assay": "Percentage of animals disrupted was determined in groups of MDMA trained rats at a dose 1.94 (umol/kg),(no of animals=10)"}, "[10]": {"system": "Rattus norvegicus", "assay": "Tested for stimulus generation in rats trained to discriminate LSD from saline at a dose 3.88 (umol/kg),(number of animals = 10)"}, "[11]": {"system": "Rattus norvegicus", "assay": "Tested for stimulus generation in rats trained to discriminate +/-MDMA from saline at 3.88 (umol/kg),(number of animals = 11)"}, "[12]": {"system": "Rattus norvegicus", "assay": "Tested for stimulus generation in rats trained to discriminate +/-MDMA from saline at 1.94 (umol/kg),(number of animals = 10)"}, "[13]": {"system": "Rattus norvegicus", "assay": "Tested for stimulus generation in rats trained to discriminate +/-MDMA from saline at 7.76 (umol/kg),(number of animals = 11)"}, "[14]": {"system": "Rattus norvegicus", "assay": "Tested for stimulus generation in rats trained to discriminate LSD from saline at a dose 5.82 (umol/kg),(number of animals = 11)"}, "[15]": {"system": "Rattus norvegicus", "assay": "Tested for stimulus generation in rats trained to discriminate LSD from saline at a dose 7.77 (umol/kg),(number of animals = 15)"}, "[16]": {"system": "Rattus norvegicus", "assay": "Tested for stimulus generation in rats trained to discriminate LSD from saline at a dose 9.70 (umol/kg),(number of animals = 13)"}},
  "data": [
    {"smiles": "COc1cc(C)c(OC)c2c1CC(N)CC2", "note": "(stereo unspecified)", "values": [
      {"measurement": "D", "setting": "[1]", "result": 20, "unit": "%"},
      {"measurement": "D", "setting": "[2]", "result": 100, "unit": "%"},
      {"measurement": "D", "setting": "[3]", "result": 69, "unit": "%"},
      {"measurement": "D", "setting": "[4]", "result": 83, "unit": "%"},
      {"measurement": "D", "setting": "[5]", "result": 27, "unit": "%"},
      {"measurement": "D", "setting": "[6]", "result": 27, "unit": "%"},
      {"measurement": "D", "setting": "[7]", "result": 47, "unit": "%"},
      {"measurement": "D", "setting": "[8]", "result": 27, "unit": "%"},
      {"measurement": "D", "setting": "[9]", "result": 20, "unit": "%"},
      {"measurement": "SDL", "setting": "[10]", "result": 25, "unit": "%"},
      {"measurement": "SDL", "setting": "[11]", "result": 50, "unit": "%"},
      {"measurement": "SDL", "setting": "[12]", "result": 38, "unit": "%"},
      {"measurement": "SDL", "setting": "[13]", "result": 38, "unit": "%"},
      {"measurement": "SDL", "setting": "[14]", "result": 38, "unit": "%"},
      {"measurement": "SDL", "setting": "[15]", "result": 13, "unit": "%"},
      {"measurement": "SDL", "setting": "[16]", "result": 0, "unit": "%"}
    ]}
  ]
}
